# Assay results reported in patent publication US20110105738A1, “DIARYL HEPATONOID-BASED COMPOUNDS USEFUL AS VIRUS INHIBITORS” (priority 2008, published 2011).
# Read-outs that look alike come from different tables or passages of the source.
# Assays:
# [1] = system: avian influenza virus KBNP-0028 (KCTC 10866BP); assay type: cell-based, A/chicken/Korea/SNU0028/2000(H9N2)
# [2] = system: CEF (chicken embryo fibroblasts)
smiles,measurement,setting,value
"O=C(/C=C/CCc1ccc(O)cc1)CCc1ccc(O)c(O)c1 [12B-AJ-7A-1, 1-(3′,4′-dihydroxyphenyl)-7-(4″-hydroxyphenyl)-4(E)-hepten-3-one]",antiviral activities (in words),[1],excellent antiviral activities
same,Number of wells which hemagglutination occurs (among 6 wells),[1]; 12.5 μg/mL,3
same,Number of wells which hemagglutination occurs (among 6 wells),[1]; 25 μg/mL,3
same,Number of wells which hemagglutination occurs (among 6 wells),[1]; 50 μg/mL,2
same,Number of wells which hemagglutination occurs (among 6 wells),[1]; 100 μg/mL,0
same,"Cytotoxicity, MTT assay reading",[2]; 6.25 μg/mL,0.424
same,"Cytotoxicity, MTT assay reading",[2]; 12.5 μg/mL,0.418
same,"Cytotoxicity, MTT assay reading",[2]; 25 μg/mL,0.347
same,"Cytotoxicity, MTT assay reading",[2]; 50 μg/mL,0.478
same,"Cytotoxicity, MTT assay reading",[2]; 100 μg/mL,0.411
same,"Cytotoxicity, MTT assay reading",[2]; 200 μg/mL,0.531
"O=C(/C=C/CCc1ccc(O)c(O)c1)CCc1ccc(O)c(O)c1 [12B-AJ-7B, 1,7-bis(3,4-dihydroxyphenyl)-4(E)-hepten-3-one]",Number of wells which hemagglutination occurs (among 6 wells),[1]; 12.5 μg/mL,3
same,Number of wells which hemagglutination occurs (among 6 wells),[1]; 25 μg/mL,3
same,Number of wells which hemagglutination occurs (among 6 wells),[1]; 50 μg/mL,3
same,Number of wells which hemagglutination occurs (among 6 wells),[1]; 100 μg/mL,3
same,"Cytotoxicity, MTT assay reading",[2]; 6.25 μg/mL,0.413
same,"Cytotoxicity, MTT assay reading",[2]; 12.5 μg/mL,0.364
same,"Cytotoxicity, MTT assay reading",[2]; 25 μg/mL,0.345
same,"Cytotoxicity, MTT assay reading",[2]; 50 μg/mL,0.399
same,"Cytotoxicity, MTT assay reading",[2]; 100 μg/mL,0.427
same,"Cytotoxicity, MTT assay reading",[2]; 200 μg/mL,0.560
"O=C(CCc1ccc(O)c(O)c1)CC(CCc1ccc(O)cc1)O[C@@H]1OC[C@@H](O)[C@H](O)[C@H]1O (stereo partly drawn) [12B-AJ-11B-1, 1-(3,4-dihydroxyphenyl)-7-(4-hydroxyphenyl)-3-heptanone-5-o-β-D-xylopyranose]",antiviral activities (in words),[1],excellent antiviral activities
same,Number of wells which hemagglutination occurs (among 6 wells),[1]; 12.5 μg/mL,3
same,Number of wells which hemagglutination occurs (among 6 wells),[1]; 25 μg/mL,3
same,Number of wells which hemagglutination occurs (among 6 wells),[1]; 50 μg/mL,3
same,Number of wells which hemagglutination occurs (among 6 wells),[1]; 100 μg/mL,1
same,"Cytotoxicity, MTT assay reading",[2]; 6.25 μg/mL,0.535
same,"Cytotoxicity, MTT assay reading",[2]; 12.5 μg/mL,0.399
same,"Cytotoxicity, MTT assay reading",[2]; 25 μg/mL,0.483
same,"Cytotoxicity, MTT assay reading",[2]; 50 μg/mL,0.487
same,"Cytotoxicity, MTT assay reading",[2]; 100 μg/mL,0.316
same,"Cytotoxicity, MTT assay reading",[2]; 200 μg/mL,0.363
"O=C(CCc1ccc(O)cc1)C[C@H](CCc1ccc(O)cc1)O[C@@H]1OC[C@@H](O)[C@H](O)[C@H]1O [12B-AJ-16A, (5S)1,7-bis(4-hydroxyphenyl)-5-o-β-D-xylopyranoside-heptane-3-one]",Number of wells which hemagglutination occurs (among 6 wells),[1]; 12.5 μg/mL,3
same,Number of wells which hemagglutination occurs (among 6 wells),[1]; 25 μg/mL,3
same,Number of wells which hemagglutination occurs (among 6 wells),[1]; 50 μg/mL,1
same,Number of wells which hemagglutination occurs (among 6 wells),[1]; 100 μg/mL,0
same,"Cytotoxicity, MTT assay reading",[2]; 6.25 μg/mL,0.441
same,"Cytotoxicity, MTT assay reading",[2]; 12.5 μg/mL,0.427
same,"Cytotoxicity, MTT assay reading",[2]; 25 μg/mL,0.432
same,"Cytotoxicity, MTT assay reading",[2]; 50 μg/mL,0.451
same,"Cytotoxicity, MTT assay reading",[2]; 100 μg/mL,0.302
same,"Cytotoxicity, MTT assay reading",[2]; 200 μg/mL,0.309
